Data on eight molecules can be found in patent US12540128B2, “Substituted pyridazinones as herbicides” (SYNGENTA CROP PROTECTION AG, priority 2019, dated 2026).

What all share (type): in vivo
What all share (conditions): 250 g/ha, after 13 days

In assay [1] the test system is Ipomoea hederacea (IPOHE). The experiment in a line: B4 Pre-Emergence Efficacy Test 2. As to the method:
(§1) Seeds of a variety of test species were sown in standard soil in pots: Amaranthus retoflexus (AMARE), Setaria faberi (SETFA), Echinochloa crus-galli (ECHCG), Ipomoea hederacea (IPOHE), Zea Mays (ZEAMX), Abutilon theophrasti (ABUTH). After cultivation for one day (pre-emergence) under controlled conditions in a glasshouse (at 24/16° C., day/night; 14 hours light; 65% humidity), the plants were sprayed with an aqueous spray solution derived from the formulation of the technical active ingredient in acetone/water (50:50) solution containing 0.5% Tween 20 (polyoxyethelyene sorbitan monolaurate, CAS RN 9005-64-5). Compounds are applied at 250 g/ha. The test plants were then grown in a glasshouse under controlled conditions (at 24/16° C., day/night; 14 hours light; 65% humidity) and watered twice daily. After 13 days, the test is evaluated for the percentage damage caused to the plant. The biological activities are assessed on a five point scale (5=80-100%; 4=60-79%; 3=40-59%; 2=20-39%; 1=0-19%). A blank value in the table is indicative that the compound was not tested on that species.

Assay [2] has as its system Setaria faberi (SETFA). In words: B4 Pre-Emergence Efficacy Test 2. The method, then: as §1
The subject of assay [3] is Zea Mays (ZEAMX). The experiment in a line: B4 Pre-Emergence Efficacy Test 2. The method, then:
as §1

Assay [4] relates to Echinochloa crus-galli (ECHCG). In words: B4 Pre-Emergence Efficacy Test 2. As to the method:
as §1

Assay [5] deals with Abutilon theophrasti (ABUTH). The experiment in a line: B4 Pre-Emergence Efficacy Test 2. As to the method:
as §1

Assay [6] deals with Amaranthus retoflexus (AMARE). The experiment in a line: B4 Pre-Emergence Efficacy Test 2. As to the method:
as §1

Assay [7] has as its system Ipomoea hederacea (IPOHE). The experiment in a line: B2 Post-Emergence Efficacy Test 2. The method, then: (§2) Seeds of a variety of test species are sown in standard soil in pots:— Amaranthus retoflexus (AMARE), Setaria faberi (SETFA), Echinochloa crus-galli (ECHCG), Ipomoea hederacea (IPOHE), Zea Mays (ZEAMX), Abutilon theophrasti (ABUTH). After 8 days cultivation (post-emergence) under controlled conditions in a glasshouse (at 24/16° C., day/night; 14 hours light; 65% humidity), the plants are sprayed with an aqueous spray solution derived from the formulation of the technical active ingredient in acetone/water (50:50) solution containing 0.5% Tween 20 (polyoxyethylene sorbitan monolaurate, CAS RN 9005-64-5). Compounds are applied at 250 g/ha. The test plants are then grown in a glasshouse under controlled conditions in a glasshouse (at 24/16° C., day/night; 14 hours light; 65% humidity) and watered twice daily. After 13 days, the test is evaluated for the percentage damage caused to the plant. The biological activities are assessed on a five point scale (5=80-100%; 4=60-79%; 3=40-59%; 2=20-39%; 1=0-19%). A blank value in the table is indicative that the compound was not tested on that species.

The subject of assay [8] is Setaria faberi (SETFA). The experiment in a line: B2 Post-Emergence Efficacy Test 2. The method, then:
as §2

Assay [9] deals with Zea Mays (ZEAMX). The experiment in a line: B2 Post-Emergence Efficacy Test 2. The method, then: as §2
The subject of assay [10] is Echinochloa crus-galli (ECHCG). The experiment in a line: B2 Post-Emergence Efficacy Test 2. As to the method: as §2
Assay [11] concerns Abutilon theophrasti (ABUTH). The experiment in a line: B2 Post-Emergence Efficacy Test 2. The method, then: as §2
The test system of assay [12] is Amaranthus retoflexus (AMARE). In words: B2 Post-Emergence Efficacy Test 2. The method, then: as §2

With `Cc1nn(C)c(=O)c(-c2c(F)ccc(Cl)c2CCc2ccc3ncsc3c2)c1O` [Compound 1.349], the “percentage damage caused to the plant, five point scale, IPOHE” value (from here on “percentage damage caused … IPOHE”) in [1] is reported as 5 (5=80-100%); in assay [7] it was 4 (4=60-79%). Besides, the “percentage damage caused to the plant, five point scale, SETFA” value (from here on “percentage damage caused … SETFA”) is reported as 5 (5=80-100%) in assay [2] and 4 (4=60-79%) in assay [8]. For the same molecule, the “percentage damage caused to the plant, five point scale, ZEAMX” value (from here on “percentage damage caused … ZEAMX”) in [3] is reported as 4 (4=60-79%); in [9] it was 2 (2=20-39%). Moreover, the “percentage damage caused to the plant, five point scale, ECHCG” value (from here on “percentage damage caused … ECHCG”) in assay [4] was 5 (5=80-100%); in [10] it was 4 (4=60-79%). In addition, the “percentage damage caused to the plant, five point scale, ABUTH” value (from here on “percentage damage caused … ABUTH”) in assay [5] and in assay [11] was 4 (4=60-79%) throughout. The “percentage damage caused to the plant, five point scale, AMARE” value (from here on “percentage damage caused … AMARE”) in [6] is on record as 5 (5=80-100%); in assay [12] it was 4 (4=60-79%).
Take `Cc1nn(C)c(=O)c(-c2c(F)ccc(Cl)c2CCc2nc3ccccc3o2)c1O` [Compound 1.359]: the figures for the “percentage damage caused … IPOHE” value in assay [1] and in assay [7] were 4 (4=60-79%) and 2 (2=20-39%), respectively. The “percentage damage caused … SETFA” value in [2] is listed as 5 (5=80-100%); in assay [8], 3 (3=40-59%). In addition, the figures for the “percentage damage caused … ZEAMX” value in assay [3] and in [9] were 3 (3=40-59%) and 1 (1=0-19%), respectively. Also, the “percentage damage caused … ECHCG” value is on record as 5 (5=80-100%) in [4] and 3 (3=40-59%) in assay [10]. The “percentage damage caused … ABUTH” value is 5 (5=80-100%) in assay [5] and 4 (4=60-79%) in assay [11]. In addition, the “percentage damage caused … AMARE” value in assay [6] is given as 5 (5=80-100%); in assay [12], 3 (3=40-59%).
In the case of `Cc1nn(C)c(=O)c(-c2c(F)ccc(Cl)c2CCc2ccc3scnc3c2)c1O` [Compound 1.350, 4-[2-[2-(1,3-benzothiazol-5-yl)ethyl]-3-chloro-6-fluoro-phenyl]-5-hydroxy-2,6-dimethyl-pyridazin-3-one], the entries for the “percentage damage caused … IPOHE” value in [1] and in assay [7] were 5 (5=80-100%) and 3 (3=40-59%), respectively. The “percentage damage caused … SETFA” value in assay [2] is on record as 5 (5=80-100%); in [8], 4 (4=60-79%). In addition, the results for the “percentage damage caused … ZEAMX” value in assay [3] and in assay [9] were 4 (4=60-79%) and 3 (3=40-59%), respectively. Besides, the “percentage damage caused … ECHCG” value in assay [4] is given as 5 (5=80-100%); in assay [10], 4 (4=60-79%). In addition, the “percentage damage caused … ABUTH” value in [5] and in [11] was 5 (5=80-100%) each time. The “percentage damage caused … AMARE” value in [6] was 5 (5=80-100%); in assay [12] it was 4 (4=60-79%).
For the molecule `Cc1nn(C)c(=O)c(-c2c(F)ccc(Cl)c2CCc2ccc3c(cnn3C)c2)c1O` [Compound 1.354], the “percentage damage caused … IPOHE” value is 5 (5=80-100%) in [1] and 4 (4=60-79%) in assay [7]. The “percentage damage caused … SETFA” value is on record as 5 (5=80-100%) in assay [2] and 4 (4=60-79%) in assay [8]. Besides, the “percentage damage caused … ZEAMX” value in assay [3] and in assay [9] was 4 (4=60-79%) throughout. The “percentage damage caused … ECHCG” value in [4] and in [10] was 5 (5=80-100%) in each case. The “percentage damage caused … ABUTH” value in assay [5] and in [11] was 4 (4=60-79%) in each case. For the same molecule, the “percentage damage caused … AMARE” value in assay [6] and in assay [12] was 4 (4=60-79%) throughout.
Turning to `Cc1nn(C)c(=O)c(-c2c(F)ccc(Cl)c2CCc2ccc3oc(=O)[nH]c3c2)c1O` [Compound 1.352], the “percentage damage caused … IPOHE” value in assay [1] and in [7] was 3 (3=40-59%) throughout. In addition, the entries for the “percentage damage caused … SETFA” value in assay [2] and in assay [8] were 5 (5=80-100%) and 4 (4=60-79%), respectively. The “percentage damage caused … ZEAMX” value in assay [3] is reported as 4 (4=60-79%); in assay [9] it was 3 (3=40-59%). For the same molecule, the figures for the “percentage damage caused … ECHCG” value in [4] and in [10] were 3 (3=40-59%) and 4 (4=60-79%), respectively. Further, the “percentage damage caused … ABUTH” value in [5] and in [11] was 4 (4=60-79%) throughout. Moreover, the “percentage damage caused … AMARE” value in assay [6] was 5 (5=80-100%); in assay [12], 4 (4=60-79%).
Consider `Cc1nn(C)c(=O)c(-c2c(F)ccc(Cl)c2CCc2ccc3c(c2)OC(C)(C)C3)c1O` [Compound 1.340], for which the results for the “percentage damage caused … IPOHE” value in assay [1] and in assay [7] were 5 (5=80-100%) and 4 (4=60-79%), respectively. Moreover, the “percentage damage caused … SETFA” value in assay [2] and in assay [8] was 5 (5=80-100%) in each case. In addition, the “percentage damage caused … ZEAMX” value in assay [3] was 3 (3=40-59%); in [9] it was 5 (5=80-100%). For the same molecule, the “percentage damage caused … ECHCG” value in assay [4] and in [10] was 5 (5=80-100%) in each case. Further, the “percentage damage caused … ABUTH” value in assay [5] and in assay [11] was 5 (5=80-100%) each time. In addition, the “percentage damage caused … AMARE” value in [6] and in assay [12] was 5 (5=80-100%) throughout.
With `Cc1nn(C)c(=O)c(-c2c(F)ccc(Cl)c2CCc2ccc3ccccc3c2)c1O` [Compound 1.053], the “percentage damage caused … IPOHE” value in [1] is 1 (1=0-19%); in [7], 4 (4=60-79%). Moreover, the “percentage damage caused … SETFA” value in assay [2] is 2 (2=20-39%); in assay [8], 4 (4=60-79%). For the same molecule, the “percentage damage caused … ZEAMX” value in [3] was 1 (1=0-19%); in [9] it was 4 (4=60-79%). The “percentage damage caused … ECHCG” value in assay [4] is 2 (2=20-39%); in [10] it was 3 (3=40-59%). Further, the “percentage damage caused … ABUTH” value is 2 (2=20-39%) in assay [5] and 3 (3=40-59%) in assay [11]. Further, the “percentage damage caused … AMARE” value in assay [6] and in [12] was 4 (4=60-79%) throughout.
For the molecule `Cc1nn(C)c(=O)c(-c2c(F)ccc(Cl)c2CCc2ccc3occc3c2)c1O` [Compound 1.346], the “percentage damage caused … IPOHE” value in assay [1] and in assay [7] was 3 (3=40-59%) throughout. The “percentage damage caused … SETFA” value in assay [2] and in [8] was 0 throughout. Besides, the “percentage damage caused … ZEAMX” value is 1 (1=0-19%) in assay [3] and 2 (2=20-39%) in [9]. Moreover, the “percentage damage caused … ECHCG” value is 0 in [4] and 4 (4=60-79%) in assay [10]. Moreover, the “percentage damage caused … ABUTH” value in assay [5] and in assay [11] was 4 (4=60-79%) each time. The figures for the “percentage damage caused … AMARE” value in assay [6] and in assay [12] were 3 (3=40-59%) and 2 (2=20-39%), respectively.
